Data from patent US20230012420A1, “METHODS AND COMPOSTIONS FOR INHIBITING P97” (California Institute of Technology, priority 2021, published 2023).

Columns and labels:
Assay type in all cases: cell-based, human
p97^R155H/+ MNs [1] = assay: MN cell survival assay (Calcein AM live cell staining); conditions: 400 nM, treated at 14 dpm for 6 days, read at 20 dpm, vs DMSO (FIG. 5A)
Protocol: The maturation of MNs was followed using a 14 day protocol from BrainXell. Briefly, the MNs were thawed and plated on poly-lysine (Sigma, cat #P7886) coated plates in MN maturation medium containing DMEM/F12 (Gibco, cat #11330-032) and neurobasal medium (1:1 v/v), 2% 50× B27, 1% 100× N2, 0.25% 100× Glutamax, 10 ng/mL BDNF (Peprotech, cat #450-02), 10 ng/mL GDNF(Peprotech, cat #450-10), 1 ng/mL TGF-β1 (Peprotech, cat #100-21c), and 1× Brainfast supplement (BrainXell). The medium was changed with the same medium containing 15 μg/mL geltrex on day 1. An equal volume of maturation medium (excluding Geltrex) was added on day 4. Half of the medium (excluding the Brainfast supplement and Geltrex) was changed twice weekly from day 7. The MNs can be maintained for at least three weeks. […] NMS-873, cat #406458), or same volume of DMSO at D14, and then incubated for 6 days. The cells were harvested on D20. […] Cell viability was monitored every 3 or 4 days by staining with Calcein AM Viability Dye (Thermo, cat #65-0853-81), acquiring and analyzing images with ImageXpress Micro Confocal High-Content Imaging System (Molecular Devices). […] Cell viability was monitored at day 1 and day 14. […]

iso p97^R155H/+ MNs = assay: MN cell survival assay (live cell staining), isogenic mutant line; conditions: 100 nM for 6 days, vs DMSO (FIG. 5B)
Protocol: To compare p97 WT and […]/+ cells, MNs were thawed and plated on poly-lysine coated 96-well plates (Greiner, cat #655090) at a density of 1000 cells per 100 μL per well in MN maturation medium as described in the “motor neuron differentiation and maturation” section. Medium was changed with 100 μL of the same medium containing 15 μg/mL geltrex on day 1. 100 μL additional medium (excluding Geltrex) was added on day 4. Half of the medium (excluding the Brainfast supplement and Geltrex) was changed on day 7 and 11. 200 nM Ara-C was added to inhibit non-MN cells from proliferating. On day 14, the medium was replaced with N2 medium (DMEM/F12 and neurobasal medium, 1:1 v/v, 1% 100× N2). N2 medium was changed every six days. Cell viability was monitored every 3 or 4 days by staining with Calcein AM Viability Dye (Thermo, cat #65-0853-81), acquiring and analyzing images with ImageXpress Micro Confocal High-Content Imaging System (Molecular Devices). For p97 inhibitor treatment, MNs were plated on poly-lysine coated 384-well plates (Greiner, cat #781946) at a density of 500 cells per 30 μL per well. The same medium was used for plating and maintaining cells. Cell viability was monitored at day 1 and day 14. […]

p97^R155H/+ MNs [2] = assay: Western blot of dysregulated protein levels after p97 inhibitor treatment; conditions: 400 nM for 6 days, 20 dpm (FIG. 5C)
Protocol: The maturation of MNs was followed using a 14 day protocol from BrainXell. Briefly, the MNs were thawed and plated on poly-lysine (Sigma, cat #P7886) coated plates in MN maturation medium containing DMEM/F12 (Gibco, cat #11330-032) and neurobasal medium (1:1 v/v), 2% 50× B27, 1% 100× N2, 0.25% 100× Glutamax, 10 ng/mL BDNF (Peprotech, cat #450-02), 10 ng/mL GDNF(Peprotech, cat #450-10), 1 ng/mL TGF-β1 (Peprotech, cat #100-21c), and 1× Brainfast supplement (BrainXell). The medium was changed with the same medium containing 15 μg/mL geltrex on day 1. An equal volume of maturation medium (excluding Geltrex) was added on day 4. Half of the medium (excluding the Brainfast supplement and Geltrex) was changed twice weekly from day 7. The MNs can be maintained for at least three weeks. […] NMS-873, cat #406458), or same volume of DMSO at D14, and then incubated for 6 days. The cells were harvested on D20. MN cells were scraped off plates, washed with DPBS, and centrifuged at 300 g for 4 min to remove supernatant. Pellets were frozen at −80° C. Pellets were resuspended with 100 lysis buffer (50 mM Tris-HCl pH 8.0, 150 mM NaCl, 1% Triton X-100 with protease inhibitor tablet, 50 μM MG132, and 50 mM NEM), and incubated on ice for 10 min with occasional vortexing. After that, samples were centrifuged at 15000 rpm at 4° C. for 10 min and transferred 90 μL cell lysate into a 1.5 mL tube. Total soluble protein concentrations were measured using the Bradford test (Bio-Rad, cat #5000006). 30 μL 4×Laemmli sample buffer (Bio-Rad, cat #161-0774) was added and samples were boiled for 5 min. An equal amount of protein was loaded and separated using 4-20% Mini-PROTEAN TGX precast gels (Bio-Rad, cat #456-1096) and transferred to nitrocellulose membranes using Trans-Blot Turbo Transfer System (Bio-Rad, cat #170-4155). Membranes were blocked with 1×TBST with 5% w/v nonfat milk, incubated with primary antibodies for 2 h at room temperature or overnight at 4° C., and incubated with HRP-conjugated secondary antibodies (Bio-Rad, 1:3000 dilution) for 2 h at room temperature. […] The blot densities were analyzed using Image Lab 6.0.1 software (Bio-Rad).

p97^R155H/+ MNs [3] = assay: Proteomic analysis (LC-MS/MS) of D20 MNs after p97 inhibitor treatment; conditions: for Tau and MCM6 (proteomics): 6 days of treatment, 400 nM; for number of the 440 downregulated proteins that were increased after treatment / number of the 920 upregulated proteins that were reduced after treatment: 6 days, count stated for treatment with CB-5083 or NMS-873 (FIG. 5E)
Protocol: The maturation of MNs was followed using a 14 day protocol from BrainXell. Briefly, the MNs were thawed and plated on poly-lysine (Sigma, cat #P7886) coated plates in MN maturation medium containing DMEM/F12 (Gibco, cat #11330-032) and neurobasal medium (1:1 v/v), 2% 50× B27, 1% 100× N2, 0.25% 100× Glutamax, 10 ng/mL BDNF (Peprotech, cat #450-02), 10 ng/mL GDNF(Peprotech, cat #450-10), 1 ng/mL TGF-β1 (Peprotech, cat #100-21c), and 1× Brainfast supplement (BrainXell). The medium was changed with the same medium containing 15 μg/mL geltrex on day 1. An equal volume of maturation medium (excluding Geltrex) was added on day 4. Half of the medium (excluding the Brainfast supplement and Geltrex) was changed twice weekly from day 7. The MNs can be maintained for at least three weeks. […] NMS-873, cat #406458), or same volume of DMSO at D14, and then incubated for 6 days. The cells were harvested on D20. After culture, MN cells were scraped off the plates, washed with DPBS, and centrifuged at 300 g for 4 min to remove supernatant. Pellets were frozen at -80° C. The mass spec samples were prepared by following instructions for the […] Sample Prep Kit (Thermo Scientific, cat #A4006). Samples were dried using a vacuum centrifuge and resuspended in 0.1% formic acid (Thermo, cat #85178) water solution. Peptide concentrations were measured using the Quantitative Fluorometric Peptide Assay kit (Thermo, cat #23290). LC-MS/MS experiments were performed by loading 0.5 μg sample onto an EASY-nLC 1000 (Thermo Scientific) connected to an Orbitrap Eclipse Tribrid mass spectrometer (Thermo Scientific). Peptides were separated on an Aurora UHPLC Column (25 cm×75 μm, 1.6 μm C18, AUR2-25075C18A, Ion Opticks) with a flow rate of 0.4 μL/min and a total duration time of 131 min following the gradient composed of 3% Solvent B for 1 min, 3-19% B for 72 min, 19-29% B for 28 min, 29-41% B for 20 min, 41-95% B for 3 min, and 95-98% B for 7 min. Solvent A consists of 97.8% H2O, 2% ACN, and 0.2% formic acid; solvent B consists of 19.8% H2O, 80% ACN, and 0.2% formic acid. MS1 scans were acquired with a range of 400-1600 m/z in the Orbitrap at 120 k resolution. The maximum injection time was 50 ms, and the AGC target was 2×105. The filter dynamic exclusion was set to exclude after 1 time, 30 s duration, and 10 ppm mass tolerance. MS2 scans were acquired with quadrupole isolation mode and higher-energy collisional dissociation (HCD) activation type in the Iontrap. The isolation window was 1.4 m/z, collision energy was 35%, maximum injection time was 35 ms, and the AGC target was 1×104. Other global settings were as below: ion source type, NSI; spray voltage, positive ion 2400 V, negative ion 600 V; ion transfer tube temperature, 300° C. Method modifications and data collection were performed using Xcalibur software (Thermo Scientific). Proteomic analysis was performed using Proteome Discoverer 2.4 (Thermo Scientific) software with the Uniprot human database and the SequestHT with Percolator validation. Protein abundance normalization was performed on total peptide. The data exported from PD2.4 were then used for further analysis. Limma analysis was performed using R studio following the user guide (Gordon, 2020). The volcano figures were plotted using Origin 2019b. PCA analyses were generated with PD2.4 and plotted using Prism 7. The Venn diagram was performed using FunRich 3.1. The heatmap figure was performed with prism 7. Functional enrichment analyses were performed with g:Profiler (Raudvere, 2019). The bubble plot was generated using Origin 2019b.

Structure (SMILES)	loss of MNs (neuron loss, live cell staining) (p97^R155H/+ MNs [1])	loss of MNs (neuron loss, live cell staining) (iso p97^R155H/+ MNs)	LC3 level (western blot) (p97^R155H/+ MNs [2])	protein levels of ISL1, NES, Tau, pTau, MCM6, p53, y-H2Ax (western blot) (p97^R155H/+ MNs [2])	Tau and MCM6 (proteomics) (p97^R155H/+ MNs [3])	number of the 440 downregulated proteins that were increased after treatment (p97^R155H/+ MNs [3])	number of the 920 upregulated proteins that were reduced after treatment (p97^R155H/+ MNs [3])
Cc1cc2c(C(N)=O)cccc2n1-c1nc2c(c(NCc3ccccc3)n1)COCC2 [CB-5083]	significantly reduced the loss of MNs	significantly reduced the loss of MNs	slightly elevated	reversed increases	reduced	192	428
Cc1cc(OCc2nnc(SC3CCCC3)n2-c2cccnc2)ccc1-c1ccc(S(C)(=O)=O)cc1 [NMS-873, 3-[3-cyclopentylsulfanyl-5-[[3-methyl-4-(4-methylsulfonylphenyl)phenoxy]methyl]-1,2,4-triazol-4-yl]pyridine]	significantly reduced the loss of MNs	significantly reduced the loss of MNs	slightly elevated	reversed increases	reduced	192	428
